Laboratory results from patent US20050209157A1, “Short bioactive peptides and methods for their use” (priority 2001, published 2005).
≈ marks a conversion by molar mass, not a printed value. No end group written: not given here.

Experiments:
[1] = test system: Pseudomonas aeruginosa ATCC 27853; assay: Antimicrobial assay I, modified protocol (tryptic soy broth), MBC; conditions: minimum bactericidal concentration, Table 4
[2] = test system: Stapholococcus aureus ATCC 25923; assay: as above; conditions: minimum bactericidal concentration, Table 4
Protocol: The preparation of all media, stock solutions, and dilutions took place in a laminar flow hood to prevent contamination. Bacterial cells were freshly grown on antibiotic medium 2 agar slants (pH 7.0 at 25° C.). Bacteria were suspended and diluted in antibiotic medium 3 to about 10^4 cfu/ml and used as the inoculum. Sample solutions (100 μl/well) were added to plates according to the plate layout. Inoculum (100 μl/well) was added to achieve a final concentration of 5×10^3 cfu/ml. Negative controls received 100 μl saline and 100 μl growth medium. Positive controls received 100 μl saline and 100 μl inoculum. Bacterial plates were incubated at 37° C. for 24 hours.
However, the data for Table 4 were obtained with a modified protocol wherein the medium was tryptic soy broth, inocolum strength was approximately 10^4 CFU per ml, and values determined were minimum bactericidal concentrations (MBC) or minimum fungicidal concentrations (MFC).
MBC or MFC values are in μg/mL. E. coli is Escherichia coli ATCC accession number 25922; P. aerug is Pseudomonas aeruginosa ATCC accession number 27853, S. aur. is Stapholococcus aureus ATCC accession number 25923; Candida is Candida albicans ATCC accession number 10231.

[3] = test system: Candida albicans ATCC 10231; assay: Antimicrobial assay I, modified protocol (tryptic soy broth), MFC; conditions: minimum fungicidal concentration, Table 4
[4] = test system: Escherichia coli ATCC 25922; assay: Antimicrobial assay I, modified protocol (tryptic soy broth), MBC; conditions: minimum bactericidal concentration, Table 4

Compound | MBC P. aerug A.27853 [1] | MBC S. aur A.25923 [2] | MFC Candida A.10231 [3] | MBC E. coli A.25922 [4]
CC(C)C[C@H](NC(=O)[C@H](C)NC(=O)[C@@H](N)Cc1ccccc1)C(=O)N[C@@H](C)C(=O)N[C@@H](CC(C)C)C(=O)N[C@@H](CCCCN)C(=O)N[C@@H](C)C(=O)N[C@@H](CC(C)C)C(=O)N[C@@H](CCCCN)C(=O)N[C@@H](CCCCN)C(N)=O [compound 169] | >250 mg/L | >250 mg/L | 75 mg/L (≈ 68.1 µM) | 200 mg/L (≈ 182 µM)
FAKLWAKLAFGKGIGKVGKKLL-NH2 [compound 135] | 40 mg/L | INACT | 25 mg/L | INACT
CC(C)C[C@H](NC(=O)[C@H](CCCCN)NC(=O)[C@H](CC(C)C)NC(=O)[C@H](Cc1c[nH]c2ccccc12)NC(=O)[C@H](CCCCN)NC(=O)[C@H](CCCCN)NC(=O)[C@H](C)NC(=O)[C@H](Cc1c[nH]c2ccccc12)NC(=O)[C@H](CCCCN)NC(=O)[C@H](CCCCN)NC(=O)[C@H](Cc1c[nH]c2ccccc12)NC(=O)[C@H](CC(C)C)NC(=O)[C@@H](N)CCCCN)C(=O)N[C@@H](Cc1c[nH]c2ccccc12)C(=O)N[C@@H](CCCCN)C(=O)N[C@@H](C)C(=O)O [compound 164] | 25 mg/L (≈ 11.7 µM) | 25 mg/L (≈ 11.7 µM) | 25 mg/L (≈ 11.7 µM) | 25 mg/L (≈ 11.7 µM)
FAKLLAKLAKKIL-NH2 [compound 125] | 40 mg/L | INACT | 40 mg/L | 40 mg/L
KAKLF-NH2 [compound 130] | INACT | INACT | INACT | INACT
CC(C)C[C@H](NC(=O)[C@H](CCCCN)NC(=O)[C@H](CCCCN)NC(=O)[C@H](Cc1c[nH]c2ccccc12)NC(=O)[C@@H](N)CCCCN)C(=O)N[C@@H](C)C(=O)N[C@@H](CCCCN)C(=O)N[C@@H](CCCCN)C(=O)N[C@@H](Cc1c[nH]c2ccccc12)C(N)=O [compound 161] | >250 mg/L | >250 mg/L | 25 mg/L (≈ 20.6 µM) | 150 mg/L (≈ 124 µM)
CC(C)C[C@H](NC(=O)[C@H](CC(C)C)NC(=O)[C@H](CCCCN)NC(=O)[C@H](C)NC(=O)[C@H](CC(C)C)NC(=O)[C@H](C)NC(=O)[C@H](CCCCN)NC(=O)[C@H](CCCCN)NC(=O)[C@H](C)NC(=O)[C@H](CC(C)C)NC(=O)[C@H](CCCCN)NC(=O)[C@H](C)NC(=O)[C@@H](N)Cc1ccccc1)C(N)=O [compound 148] | >250 mg/L | >250 mg/L | 100 mg/L (≈ 70.7 µM) | 150 mg/L (≈ 106 µM)
CC(C)C[C@H](NC(=O)[C@H](CCCCN)NC(=O)[C@H](CCCCN)NC(=O)[C@H](C)NC(=O)[C@H](CC(C)C)NC(=O)[C@H](CCCCN)NC(=O)[C@H](CCCCN)NC(=O)[C@H](CC(C)C)NC(=O)[C@H](CCCCN)NC(=O)[C@H](CCCCN)NC(=O)[C@H](C)NC(=O)[C@@H](N)Cc1ccccc1)C(N)=O [compound 79] | >50 mg/L | >50 mg/L | >50 mg/L | >50 mg/L
CC(C)C[C@H](NC(=O)[C@H](CCCCN)NC(=O)[C@H](CCCCN)NC(=O)[C@H](C)NC(=O)[C@H](CC(C)C)NC(=O)[C@H](CCCCN)NC(=O)[C@H](C)NC(=O)[C@H](CC(C)C)NC(=O)[C@H](CC(C)C)NC(=O)[C@H](CCCCN)NC(=O)[C@H](C)NC(=O)[C@@H](N)Cc1ccccc1)C(N)=O [compound 49] | 30 mg/L (≈ 22.3 µM) | 50 mg/L (≈ 37.2 µM) | 30 mg/L (≈ 22.3 µM) | 40 mg/L (≈ 29.8 µM)
CC(C)C[C@H](NC(=O)[C@H](CCCCN)NC(=O)[C@H](CC(C)C)NC(=O)[C@H](CC(C)C)NC(=O)[C@H](C)NC(=O)[C@@H](N)Cc1ccccc1)C(N)=O [compound 168] | 100 mg/L (≈ 142 µM) | >250 mg/L | 150 mg/L (≈ 213 µM) | 75 mg/L (≈ 107 µM)
CC(C)C[C@H](NC(=O)[C@H](CCCCN)NC(=O)[C@H](C)NC(=O)[C@H](CC(C)C)NC(=O)[C@H](CC(C)C)NC(=O)[C@H](CCCCN)NC(=O)[C@H](C)NC(=O)[C@@H](N)Cc1ccccc1)C(=O)N[C@@H](C)C(=O)N[C@@H](CCCCN)C(=O)N[C@@H](C)C(=O)N[C@@H](CCCCN)C(=O)NCC(N)=O [compound 96] | >50 mg/L | >50 mg/L | >50 mg/L | >50 mg/L
CC(C)C[C@H](NC(=O)[C@H](CC(C)C)NC(=O)[C@H](CCCCN)NC(=O)[C@H](CC(C)C)NC(=O)[C@H](CC(C)C)NC(=O)[C@H](CCCCN)NC(=O)[C@H](CCCCN)NC(=O)[C@H](Cc1ccc(O)cc1)NC(=O)[C@H](CC(C)C)NC(=O)[C@H](CCCCN)NC(=O)[C@H](CC(C)C)NC(=O)[C@H](CC(C)C)NC(=O)[C@H](CC(C)C)NC(=O)[C@H](CCCCN)NC(=O)[C@H](CC(C)C)NC(=O)[C@H](CC(C)C)NC(=O)[C@@H](N)CCCCN)C(=O)O [compound 156] | >250 mg/L | >250 mg/L | >250 mg/L | 100 mg/L (≈ 48 µM)
CC(C)C[C@H](NC(=O)[C@H](CC(C)C)NC(=O)[C@H](CCCCN)NC(=O)[C@H](CCCCN)NC(=O)[C@H](C)NC(=O)[C@H](CC(C)C)NC(=O)[C@H](CCCCN)NC(=O)[C@H](C)NC(=O)[C@@H](N)Cc1ccccc1)C(N)=O [compound 60] | >50 mg/L | >50 mg/L | >50 mg/L | >50 mg/L
CC(C)C[C@H](NC(=O)[C@H](CCCCN)NC(=O)[C@H](CCCCN)NC(=O)[C@H](C)NC(=O)[C@H](CC(C)C)NC(=O)[C@H](CCCCN)NC(=O)[C@H](C)NC(=O)[C@H](CCCCN)NC(=O)[C@H](CCCCN)NC(=O)[C@H](C)NC(=O)[C@H](CC(C)C)NC(=O)[C@H](CCCCN)NC(=O)[C@H](CCCCN)NC(=O)[C@H](C)NC(=O)[C@@H](N)Cc1ccccc1)C(N)=O [compound 77] | >50 mg/L | >50 mg/L | >50 mg/L | >50 mg/L
FALKALKK-NH2 [compound 145] | INACT | INACT | 100 mg/L | INACT
CC(C)C[C@H](NC(=O)[C@H](CCCCN)NC(=O)[C@H](CC(C)C)NC(=O)[C@H](Cc1c[nH]c2ccccc12)NC(=O)[C@H](CCCCN)NC(=O)[C@H](CCCCN)NC(=O)[C@H](C)NC(=O)[C@H](Cc1c[nH]c2ccccc12)NC(=O)[C@H](CCCCN)NC(=O)[C@H](CCCCN)NC(=O)[C@H](Cc1c[nH]c2ccccc12)NC(=O)[C@H](CC(C)C)NC(=O)[C@@H](N)CCCCN)C(=O)N[C@@H](Cc1c[nH]c2ccccc12)C(=O)N[C@@H](CCCCN)C(=O)N[C@@H](C)C(=O)N[C@@H](Cc1c[nH]c2ccccc12)C(N)=O [compound 163] | 50 mg/L (≈ 21.5 µM) | 25 mg/L (≈ 10.7 µM) | 25 mg/L (≈ 10.7 µM) | 25 mg/L (≈ 10.7 µM)
CC(C)C[C@H](NC(=O)[C@H](C)NC(=O)[C@H](CCCCN)NC(=O)[C@H](CCCCN)NC(=O)[C@H](CC(C)C)NC(=O)[C@H](C)NC(=O)[C@H](CCCCN)NC(=O)[C@H](CC(C)C)NC(=O)[C@H](CC(C)C)NC(=O)[C@H](C)NC(=O)[C@@H](N)Cc1ccccc1)C(N)=O [compound 171] | 100 mg/L (≈ 82.3 µM) | >250 mg/L | 50 mg/L (≈ 41.2 µM) | 75 mg/L (≈ 61.7 µM)
CC(C)C[C@H](NC(=O)[C@H](CCCCN)NC(=O)[C@H](CCCCN)NC(=O)[C@H](Cc1c[nH]c2ccccc12)NC(=O)[C@@H](N)CCCCN)C(N)=O [compound 173] | >250 mg/L | >250 mg/L | 150 mg/L (≈ 214 µM) | >250 mg/L
CC(C)C[C@H](NC(=O)[C@H](C)NC(=O)[C@H](CC(C)C)NC(=O)[C@H](C)NC(=O)[C@H](CC(C)C)NC(=O)[C@H](CCCCN)NC(=O)[C@H](C)NC(=O)[C@H](CC(C)C)NC(=O)[C@H](CCCCN)NC(=O)[C@H](CCCCN)NC(=O)[C@H](C)NC(=O)[C@H](CC(C)C)NC(=O)[C@H](CCCCN)NC(=O)[C@H](CCCCN)NC(=O)[C@H](CC(C)C)NC(=O)[C@H](CCCCN)NC(=O)[C@H](CCCCN)NC(=O)[C@H](C)NC(=O)[C@H](CC(C)C)NC(=O)[C@H](CCCCN)NC(=O)[C@H](CCCCN)NC(=O)[C@H](C)NC(=O)[C@@H](N)Cc1ccccc1)C(N)=O [compound 11] | 25 mg/L (≈ 9.86 µM) | 25 mg/L (≈ 9.86 µM) | >50 mg/L | 40 mg/L (≈ 15.8 µM)
FAKLFAKLAKKFAL-NH2 [compound 121] | INACT | INACT | 50 mg/L | INACT
CC(C)C[C@H](NC(=O)[C@H](C)NC(=O)[C@H](CC(C)C)NC(=O)[C@H](C)NC(=O)[C@H](CC(C)C)NC(=O)[C@H](CCCCN)NC(=O)[C@H](C)NC(=O)[C@H](CC(C)C)NC(=O)[C@H](CCCCN)NC(=O)[C@H](CCCCN)NC(=O)[C@H](CC(C)C)NC(=O)[C@H](CCCCN)NC(=O)[C@H](CCCCN)NC(=O)[C@H](C)NC(=O)[C@H](CC(C)C)NC(=O)[C@H](CCCCN)NC(=O)[C@H](CCCCN)NC(=O)[C@H](C)NC(=O)[C@@H](N)Cc1ccccc1)C(=O)O [27C] | 4 mg/L (≈ 1.91 µM) | >40 mg/L | >40 mg/L | 10 mg/L (≈ 4.77 µM)
